We go through 22 compounds from patent publication US4301313A, “Halogenated ethynyl biphenyls” (Eli-Lilly and Company, priority 1974, dated 1981).

A value given as a limit tells only on which side of the number the result lay.

Assay [1] is described as follows: adjuvant-induced arthritis test (paw volume). It counts as in vivo, rat (male albino). To be noted: rat, oral, dose 25 (unit not given).
Assay [2] in a line: ultraviolet-induced erythema blocking test, oral (modified Winder method). The assay is classed as in vivo, guinea pig (male albino). The note with it: Cavia porcellus, guinea pig, weighted scores 1.0-2.5 h after UV, dose which provides 50% inhibition. Here is the method: The compounds of the present invention were evaluated for anti-inflammatoryactivity by the ultraviolet-induced erythema blocking test. The test procedures were a modification of the Winder method (Winder, C. V.; Wax, J.; Burr, V.; Been, M.; and Posiere, C. E.: A Study of Pharmacological Influences on Ultraviolet Erythema in Guinea Pigs. Arch. Int. Pharmacodyn. 116: 261, 1958). Male albino guinea pigs weighing 240-300 gm. were used. The hair on the back was clipped and chemically depilated 15-18 hours before each experiment. The animals were fasted overnight, and on the day of the experiment, were randomized and placed in clear plastic partitioned holders 10×20 cm. wide and 15 cm. high.
The compounds to be tested were suspended in 1% methyl cellulose in water, utilizing a tissue homogenizer. The suspensions were administered orally in a volume of 2.0 ml./kg. of body weight. Control animals received an equal amount of the vehicle.
The source of ultraviolet light was a Hanovia lamp (Kromayer-Model 10). A notebook reinforcement ring was placed upon the lens of the lamp to provide an area of contrast for grading purposes. The lens was then placed in contact with the skin of the guinea pig's back. Exposure time to UV was for a period of 4 seconds. Beginning one hour after exposure and thereafter at half-hour intervals for another 11/2 hours, the degree of resulting erythema was graded by an arbitrary scoring system based upon the degree of contrast and redness formed. Anti-inflammatory agents delay the development of the erythema and have their greatest effect at the initial grading periods. The scores were, therefore, weighted by factors of 4, 3, 2, and 1 at the 1.0, 1.5, 2.0, and 2.5 hour scoring times, respectively. The erythema was graded as follows:
Total scores from each treatment group of four guinea pigs were compared to the scores of the control group. The percent inhibition was calculated as follows: [formula] In the case of compounds showing inhibition, retesting was carried out at a plurality of doses to enable calculation of an ED50 for each such compound. "ED50 " designates that dose which provides 50% inhibition. Calculation of the ED50 was either by a standard linear regression method or by estimation from a dose-response curve of three or more points. The compounds so tested and their ED50 s were as follows: […]

Assay [3] in a line: analgesic activity, acetic acid-induced writhing. It counts as in vivo, mouse (albino male). To be noted: mouse, p.o., dose reducing writhing frequency by 50%; 30, 90, 180 minutes after administration. As for the experimental part: Representative compounds were also evaluated for analgesic activity. The evaluation was conducted by using acetic acid-induced writhing in mice as the pain model. Clinically effective analgesis are effective when tested in this model: see Koster et al., "Acetic Acid for Analgesic Screening," 18 Fed. Proc. 412 (1959).
In a method similar to that reported by Koster et al., standard strain albino male mice weighing 20-22 grams were fasted overnight. The respective compound or vehicle (as control) was administered by gastric lavage (p.o.). Each compound was administered in an aqueous suspension of 1% methylcellulose in water. […] At 30, 90, and 180 minutes after administration, writhing was induced by the intraperitoneal administration of 55 mg./kg. of acetic acid (0.55%). Each treatment group consisted of 5 mice and separate groups were examined at each observation time. The total number of writhes for the treatment group were counted in a 10-minute observation period starting 5 minutes after the acetic acid administration. The treatment totals were compared to controls and a percent inhibition calculated as follows: [formula] […] An ED50, which represented the dose that would reduce the writhing frequency by 50%, was estimated from a dose-reponse curve of three or more points. A dose range was reported if only two points were availale for the dose response curve and they bracketed the 50% level. If data was available at 100 mg./kg., only, then the estimated ED50 was reported simply as less than 100 (<100).
A general note: Writhing tests count abdominal constrictions after an irritant is injected.

A short description of assay [4]: carrageenin-induced hind paw inflammation. The note with it: Rattus norvegicus. The assay is classed as in vivo. Here is the method:
Representative compounds were also evaluated for anti-inflammatory activity in the test method described by C. A. Winter at 111 Proc. Soc. Exp. Biol. Med., 544 (1962). In this method, inflammation is created by injecting carrageenin into the hind paw of rats. Test compounds are administered prior to injection to determine percent inhibition of the subsequent inflammation, in comparison with control animals.
In general terms: The carrageenan paw model is a standard test of acute inflammation.

(2-(2,5-difluorophenyl)phenyl)acetylene: the “Percent Inhibition of Volume Increase, Day 7” value in assay [1] (Day 7) was 38%. Also, the “Percent Inhibition of Volume Increase, Day 14” value in assay [1] (Day 14) was 15%.
Broadly, the ED50 is the midpoint of the dose-response relation. Low values mean an effect at a small dose, high ones a need for a large dose. In general, inhibition in vivo refers to the relative decrease from the control value, in per cent. In turn, `C#Cc1ccc(Oc2ccccc2F)cc1` [(4-(2-fluorophenoxy)phenyl)acetylene, (4-(2-Fluorophenoxy)phenyl)acetylene] yielded an ED50 in assay [2] of 16.5 mg/kg. Besides, the “Estimated ED50” value in assay [3] is < 100 mg/kg. In assay [4], this compound gave an inhibition in vivo at 3 mg/kg of 28%, an inhibition in vivo at 10 mg/kg of 45% and an inhibition in vivo at 30 mg/kg of 68%.
In assay [2], `C#Cc1ccc(-c2cccc(F)c2)cc1` [(4-(3-fluorophenyl)phenyl)acetylene, (4-(3-Fluorophenyl)phenyl)acetylene] gave an ED50 of 3 mg/kg. Also, in assay [3], the “Estimated ED50” value is 35 mg/kg. This compound displayed an inhibition in vivo at 10 mg/kg in assay [4] of 17%.
The compound `C#Cc1ccc(Oc2ccccc2)cc1C` [(2-methyl-4-phenoxyphenyl)acetylene, (2-Methyl-4-phenoxyphenyl)acetylene] came in with an ED50 in assay [2] of 8 mg/kg. Further, the “Estimated ED50” value in assay [3] was < 100 mg/kg. In assay [4], this compound came in with an inhibition in vivo at 25 mg/kg of 33%.
Turning to `C#Cc1ccc(-c2ccccc2)c(C)c1` [(3-methyl-4-phenylphenyl)acetylene, (3-Methyl-4-phenylphenyl)acetylene], in assay [2], it took a dose of 0.09 mg/kg to reach the 50% effect level (ED50). Moreover, the “Estimated ED50” value in assay [3] was 50 mg/kg. In assay [4], this compound returned an inhibition in vivo at 3 mg/kg of 37%, an inhibition in vivo at 10 mg/kg of 56%, an inhibition in vivo at 30 mg/kg of 56% and an inhibition in vivo at 50 mg/kg of 66%.
Turning to `C#Cc1ccc(OCCCC)cc1C` [(2-methyl-4-n-butoxyphenyl)acetylene, (2-Methyl-4-n-butoxyphenyl)acetylene], in assay [2], the 50% effect level (ED50) was put at a dose of 35 mg/kg. In assay [4], this compound had an inhibition in vivo at 25 mg/kg of 9%.
`C#Cc1ccc(-c2ccccc2)c(F)c1` [(3-fluoro-4-phenylphenyl)acetylene, (3-Fluoro-4-phenylphenyl)acetylene] yielded an ED50 in assay [2] of 0.5 mg/kg. Further, in assay [3], the “Estimated ED50” value is 10 mg/kg.
Regarding `C#Cc1ccc(Oc2ccccc2)c(C)c1` [(3-methyl-4-phenoxyphenyl)acetylene, (3-Methyl-4-phenoxyphenyl)acetylene], the 50% effective dose (ED50) in assay [2] was determined as 10 mg/kg. Moreover, the “Estimated ED50” value in assay [3] is < 100 mg/kg. The inhibition in vivo at 10 mg/kg in assay [4] came out at 16%.
On to `C#Cc1ccc(C2CCCCC2)c(Cl)c1` [(3-chloro-4-cyclohexylphenyl)acetylene, (3-Chloro-4-cyclohexylphenyl)acetylene], for which, in assay [2], the ED50 worked out at 1 mg/kg. In addition, the “Estimated ED50” value in assay [3] was < 100 mg/kg.
Regarding `C#Cc1cccc(Oc2ccccc2F)c1` [(3-(2-fluorophenoxy)phenyl)acetylene, (3-(2-Fluorophenoxy)phenyl)acetylene], the 50% effect level in assay [2] (ED50) was put at a dose of 12 mg/kg. This compound also had an inhibition in vivo at 50 mg/kg in assay [4] of 32%.
The compound `C#Cc1ccc(-c2ccccc2C)cc1` [(4-(o-tolyl)phenyl)acetylene, (4-(o-Tolyl)phenyl)acetylene] displayed an ED50 in assay [2] of 0.9 mg/kg. In addition, in assay [3], the “Estimated ED50” value is 35 mg/kg. In assay [4], this compound showed an inhibition in vivo at 3 mg/kg of 16%, an inhibition in vivo at 10 mg/kg of 6%, an inhibition in vivo at 30 mg/kg of 53% and an inhibition in vivo at 50 mg/kg of 48%.
Compound `C#Cc1ccc(-c2ccc(F)cc2F)cc1` [(4-(2,4-difluorophenyl)phenyl)acetylene, (4-(2,4-Difluorophenyl)phenyl)acetylene] registered an ED50 in assay [2] of 4 mg/kg. In addition, in assay [3], the “Estimated ED50” value was 4 mg/kg. In assay [4], this compound showed an inhibition in vivo at 25 mg/kg of 31%.
For the compound `C#Cc1ccc(-c2cc(F)ccc2F)cc1` [(4-(2,5-difluorophenyl)phenyl)acetylene, (4-(2,5-Difluorophenyl)phenyl)acetylene], the ED50 in assay [2] was 4.4 mg/kg. Moreover, the “Estimated ED50” value in assay [3] is 10 mg/kg. In addition, the inhibition in vivo at 25 mg/kg in assay [4] amounted to 43%.
`C#Cc1cccc(Oc2ccccc2)c1` [(3-phenoxyphenyl)acetylene, (3-Phenoxyphenyl)acetylene]: the 50% effect level in assay [2] (ED50) was put at a dose of 13 mg/kg. Also, in assay [3], the “Estimated ED50” value was < 100 mg/kg. This compound gave an inhibition in vivo at 10 mg/kg in assay [4] of 7%.
`C#Cc1ccc(-c2ccccc2)c(OC)c1` [(3-methoxy-4-phenylphenyl)acetylene, (3-Methoxy-4-phenylphenyl)acetylene]: the ED50 in assay [2] came to 0.6 mg/kg.
In assay [2], `C#Cc1ccc(-c2ccccc2)cc1OC` [(2-methoxy-4-phenylphenyl)acetylene, (2-Methoxy-4-phenylphenyl)acetylene] yielded an ED50 of 39 mg/kg. Besides, the inhibition in vivo at 1 mg/kg in assay [4] (1 mg./kg.) came out at 25%. In assay [4], this compound displayed an inhibition in vivo at 10 mg/kg of 7% and an inhibition in vivo at 50 mg/kg of 51%.
In assay [2], `C#Cc1cccc(-c2ccccc2)c1` [3-biphenylylacetylene, 3-Biphenylylacetylene] had an ED50 of 7 mg/kg. Further, the “Estimated ED50” value in assay [3] is 50 to 100 mg/kg. The compound further yielded an inhibition in vivo at 50 mg/kg in assay [4] of 32%.
For the compound `C#Cc1cc(C)c(Oc2ccccc2)c(C)c1` [(3,5-dimethyl-4-phenoxyphenyl)acetylene, (3,5-Dimethyl-4-phenoxyphenyl)acetylene], in assay [2], the 50% effective dose (ED50) came out at 11 mg/kg. For the same compound, in assay [3], the “Estimated ED50” value is < 100 mg/kg. Moreover, 50 mg/kg produced 29% inhibition in vivo in assay [4].
`C#Cc1ccc(-c2c(F)cccc2F)cc1` [(4-(2,6-difluorophenyl)phenyl)acetylene, (4-(2,6-Difluorophenyl)phenyl)acetylene]: the ED50 in assay [2] was found to be 12 mg/kg. Further, the “Estimated ED50” value in assay [3] was < 100 mg/kg. In assay [4], this compound yielded an inhibition in vivo at 3 mg/kg of 7%, an inhibition in vivo at 10 mg/kg of 34%, an inhibition in vivo at 30 mg/kg of 37% and an inhibition in vivo at 50 mg/kg of 49%.
As to `C#Cc1ccc(F)c(-c2ccccc2F)c1` [(4-Fluoro-3-(2-fluorophenyl)phenyl)acetylene], the 50% effect level in assay [2] (ED50) was put at a dose of 23 mg/kg. In assay [4], this compound returned an inhibition in vivo at 3 mg/kg of 13%, an inhibition in vivo at 10 mg/kg of 23%, an inhibition in vivo at 30 mg/kg of 43% and an inhibition in vivo at 50 mg/kg of 45%.
`C#Cc1ccc(-c2ccccc2)cc1C` [(2-methyl-4-phenylphenyl)acetylene] yielded a 50% effective dose (ED50) in assay [2] of 20 mg/kg. Moreover, the “Estimated ED50” value in assay [3] was 60 mg/kg.
`C#Cc1ccc(-c2ccccc2Cl)cc1` [(4-(2-chlorophenyl)phenyl)acetylene, (4-(2-Chlorophenyl)phenyl)acetylene] gave a median effective dose (ED50) in assay [2] of 0.8 mg/kg. The “Estimated ED50” value in assay [3] was 20 to 100 mg/kg. In assay [4], the inhibition in vivo at 50 mg/kg was found to be 52%.
